# Assay results taken from PubChem BioAssay (NCI).
#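 Values below derive from 48-hour exposures of cells grown in 96-well plates, with endpoints linearly interpolated between the two concentrations bracketing the appropriate inhibition level. Abbreviation: GI50, concentration required for 50% inhibition of growth. TGI: concentration producing complete growth inhibition.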
# Experiments:
# Experiment in all cases: inhibition of tumour cell growth, NCI panel, 48 h
# [1] = system: HCC-2998 colon
# [2] = system: UACC-257 melanoma
# [3] = system: K-562 leukemia
# [4] = system: IGROV1 ovarian
# [5] = system: HCT-116 colon
# [6] = system: OVCAR-8 ovarian
# [7] = system: HL-60(TB) leukemia
# [8] = system: BT-549 breast
# [9] = system: HOP-62 NSCLC
# [10] = system: SK-MEL-5 melanoma
# [11] = system: HT29 colon
# [12] = system: 786-0 renal
# [13] = system: HCT-15 colon
# [14] = system: NCI-H226 lung
# [15] = system: NCI-H460 lung
# [16] = system: SR leukemia
# [17] = system: A549 NSCLC
# [18] = system: CCRF-CEM leukemia
# [19] = system: MALME-3M melanoma
# [20] = system: OVCAR-5 ovarian
# [21] = system: UO-31 renal
# [22] = system: HS 578T breast
# [23] = system: NCI-H522 lung
# [24] = system: U251 CNS
# [25] = system: MCF7 breast
# [26] = system: SF-539 CNS
# [27] = system: SN12C renal
# [28] = system: NCI/ADR-RES ovarian
# [29] = system: RPMI-8226 leukemia
# [30] = system: TK-10 renal
# [31] = system: SK-MEL-2 melanoma
# [32] = system: PC-3 prostate
# [33] = system: EKVX NSCLC
# [34] = system: OVCAR-4 ovarian
# [35] = system: MDA-MB-231 breast
# [36] = system: UACC-62 melanoma
# [37] = system: SF-268 CNS
# [38] = system: DU-145 prostate
# [39] = system: SF-295 CNS
# [40] = system: MOLT-4 leukemia
# [41] = system: OVCAR-3 ovarian
# [42] = system: SK-MEL-28 melanoma
# [43] = system: SNB-75 CNS
# [44] = system: A498 renal
# [45] = system: KM12 colon
# [46] = system: ACHN renal
# [47] = system: MDA-MB-435
# [48] = system: M14 melanoma
# [49] = system: HOP-92 NSCLC
# [50] = system: SK-OV-3 ovarian
# [51] = system: COLO 205 colon
# [52] = system: NCI-H23 lung
# [53] = system: CAKI-1 renal
# [54] = system: T-47D breast
# [55] = system: RXF 393 renal
# [56] = system: SW-620 colon
# [57] = system: LOX IMVI melanoma
# [58] = system: SNB-19 CNS
smiles,measurement,setting,value
NC(N)=N/N=C/c1c(-c2ccc(Cl)c([N+](=O)[O-])c2)nc2sc(Cl)cn12,TGI,[1],> 100 µM
same,TGI,[2],3.79 µM
same,TGI,[3],> 100 µM
same,TGI,[4],3.18 µM
same,TGI,[5],> 100 µM
same,TGI,[6],4.08 µM
same,TGI,[7],> 100 µM
same,TGI,[8],3.48 µM
same,TGI,[9],> 100 µM
same,TGI,[10],15.9 µM
same,TGI,[11],6.85 µM
same,TGI,[12],> 100 µM
same,TGI,[13],> 100 µM
same,TGI,[14],> 100 µM
same,TGI,[15],8.08 µM
same,TGI,[16],> 100 µM
same,TGI,[17],7 µM
same,TGI,[18],> 100 µM
same,TGI,[19],5.58 µM
same,TGI,[20],> 100 µM
same,TGI,[21],3.47 µM
same,TGI,[22],5.54 µM
same,TGI,[23],3.07 µM
same,TGI,[24],> 100 µM
same,TGI,[25],6.3 µM
same,TGI,[26],4.98 µM
same,TGI,[27],4.88 µM
same,TGI,[28],> 100 µM
same,TGI,[29],> 100 µM
same,TGI,[30],58.5 µM
COc1cc(-c2ccc(Br)[nH]2)[nH]c1C=NCC(C)C,TGI,[31],3.07 µM
same,TGI,[32],4.39 µM
same,TGI,[1],4.67 µM
same,TGI,[2],5.34 µM
same,TGI,[3],14.2 µM
same,TGI,[4],7.09 µM
same,TGI,[5],2.86 µM
same,TGI,[6],6.28 µM
same,TGI,[33],2.03 µM
same,TGI,[34],12.8 µM
same,TGI,[35],6.64 µM
same,TGI,[36],7.33 µM
same,TGI,[37],9.1 µM
same,TGI,[7],3.9 µM
same,TGI,[38],2.9 µM
same,TGI,[39],3.67 µM
same,TGI,[40],4.04 µM
same,TGI,[9],3.39 µM
same,TGI,[10],2.87 µM
same,TGI,[11],3.54 µM
same,TGI,[12],3.27 µM
same,TGI,[13],3.15 µM
same,TGI,[41],3.79 µM
same,TGI,[42],7.67 µM
same,TGI,[15],7.92 µM
same,TGI,[43],9.45 µM
same,TGI,[44],7.16 µM
same,TGI,[45],3.94 µM
same,TGI,[46],4.19 µM
same,TGI,[17],3.62 µM
same,TGI,[18],3.24 µM
same,TGI,[19],3.13 µM
same,TGI,[20],5.05 µM
same,TGI,[47],4.54 µM
same,TGI,[21],4.77 µM
same,TGI,[22],5.26 µM
same,TGI,[48],4.28 µM
same,TGI,[24],3.88 µM
same,TGI,[49],4.01 µM
same,TGI,[25],2.47 µM
same,TGI,[50],6.91 µM
same,TGI,[26],5.84 µM
same,TGI,[51],2.48 µM
same,TGI,[52],4.14 µM
same,TGI,[27],7.51 µM
same,TGI,[29],2.67 µM
same,TGI,[30],6.56 µM
same,TGI,[53],7.64 µM
O=C(O)CCC(NC(=O)c1ccc(OCc2nc3cc(C(F)(F)F)ccc3nc2-c2ccccc2)cc1)C(=O)O (stereo unspecified),TGI,[31],> 100 µM
same,TGI,[32],> 100 µM
same,TGI,[1],> 100 µM
same,TGI,[2],> 100 µM
same,TGI,[3],> 100 µM
same,TGI,[4],> 100 µM
same,TGI,[5],> 100 µM
same,TGI,[6],> 100 µM
same,TGI,[33],> 100 µM
same,TGI,[54],> 100 µM
same,TGI,[34],> 100 µM
same,TGI,[55],> 100 µM
same,TGI,[35],> 100 µM
same,TGI,[36],> 100 µM
same,TGI,[37],> 100 µM
same,TGI,[7],> 100 µM
same,TGI,[38],> 100 µM
same,TGI,[39],> 100 µM
same,TGI,[40],> 100 µM
same,TGI,[9],> 100 µM
same,TGI,[11],> 100 µM
same,TGI,[12],> 100 µM
same,TGI,[13],> 100 µM
same,TGI,[56],> 100 µM
same,TGI,[41],> 100 µM
same,TGI,[14],> 100 µM
same,TGI,[42],> 100 µM
same,TGI,[15],> 100 µM
same,TGI,[16],> 100 µM
same,TGI,[43],> 100 µM
same,TGI,[44],> 100 µM
same,TGI,[45],> 100 µM
same,TGI,[46],> 100 µM
same,TGI,[57],> 100 µM
same,TGI,[17],> 100 µM
same,TGI,[18],> 100 µM
same,TGI,[19],> 100 µM
same,TGI,[20],> 100 µM
same,TGI,[47],> 100 µM
same,TGI,[21],> 100 µM
same,TGI,[23],> 100 µM
same,TGI,[48],> 100 µM
same,TGI,[24],> 100 µM
same,TGI,[49],> 100 µM
same,TGI,[25],> 100 µM
same,TGI,[50],> 100 µM
same,TGI,[58],> 100 µM
same,TGI,[26],> 100 µM
same,TGI,[51],> 100 µM
same,TGI,[52],> 100 µM
same,TGI,[27],> 100 µM
same,TGI,[28],> 100 µM
same,TGI,[30],> 100 µM
same,TGI,[53],> 100 µM
COC(=O)c1ccc2[nH]c(O)c(C(=Nc3ccc(N(C)C(=O)CN4CCN(C)CC4)cc3)c3ccc(C)cc3)c2c1,GI50,[5],0.124 µM
same,TGI,[5],1.27 µM
same,GI50,[55],0.221 µM
same,TGI,[55],1.05 µM
same,GI50,[8],1.13 µM
same,TGI,[8],2.45 µM
same,GI50,[10],1.11 µM
same,TGI,[10],2.39 µM
same,GI50,[12],0.336 µM
same,TGI,[12],1.78 µM
same,GI50,[16],0.153 µM
same,TGI,[16],1.34 µM
same,GI50,[44],0.458 µM
same,TGI,[44],1.96 µM
same,GI50,[18],0.355 µM
same,GI50,[19],0.618 µM
same,TGI,[19],1.88 µM
same,GI50,[21],0.353 µM
same,TGI,[21],1.47 µM
same,GI50,[22],0.105 µM
same,TGI,[22],0.977 µM
same,GI50,[24],0.571 µM
same,TGI,[24],2 µM
same,GI50,[26],0.307 µM
same,TGI,[26],1.18 µM
same,GI50,[29],0.494 µM
same,TGI,[29],2.47 µM
same,GI50,[53],0.132 µM
same,TGI,[53],1.48 µM
